Measured values taken from patent publication US7569517B2, “4-biphenyl-substituted pyrazolidin-3 5-diones pesticide agent and/or microbicide and/or herbicide” (Bayer CropScience AG, priority 2003, dated 2009).

Experiments:
Assay type in all cases: in vivo
Meloidogyne incognita = test: Meloidogyne test (Example A); settings: 20 ppm active compound; nematicidal action by formation of galls on lettuce roots; 100% = no galls
Experimental: • Solvent: 7 parts by weight of dimethylformamide • Emulsifier: 2 parts by weight of alkylaryl polyglycol ether
To produce a suitable preparation of active compound, 1 part by weight of active compound is mixed with the stated amounts of solvent and emulsifier, and the concentrate is diluted with water to the desired concentration.
Containers are filled with sand, solution of active compound, Meloidogyne incognita egg/larvae suspension and lettuce seeds. The lettuce seeds germinate and the plants develop. On the roots, galls are formed.
After the desired period of time, the nematicidal action is determined in % by the formation of galls. 100% means that no galls were found; 0% means that the number of galls on the treated plants corresponds to that of the untreated control.

[1] = tested on: monocotyledonous and dicotyledonous weed and crop plants (cereals); test: Herbicidal post-emergence action, use of safeners, container trials with cereals in the greenhouse (Example I); settings: without safener
Experimental: (§1) Herbicidal Post-emergence Action
Seeds of monocotyledonous and dicotyledonous weed and crop plants are placed into sandy loam in wood fibre pots or in plastic pots, covered with soil and cultivated in a greenhouse, during the vegetation period also outdoors outside of the greenhouse, under good growth conditions. 2-3 weeks after sowing, the test plants are treated at the one- to three-leaf stage. The test compounds, formulated as wettable powders (WP), or emulsifiable concentrates (EC), are, in various dosages with a water application rate of 300 l/ha (converted), with wetting agent (0.2 to 0.3%) added, sprayed onto the plants and the surface of the soil. 3-4 weeks after the treatment of the test plants, the effect of the preparations is rated visually in comparison to untreated controls (herbicidal effect in precent (%): 100% effect=the plants have died, 0% effect=like control plants).
If it is additionally to be tested whether safeners can improve the plant compatibility of test substances in the case of the crop plants, the following option is used for applying the safener: • seeds of the crop plants are, before sowing, dressed with the safener substance (the amount of safener is stated in percent, based on the weight of seed) • before the application of the test substances, the crop plants are sprayed with the safener at a certain application rate per hectare (usually 1 day before the application of the test substances) • the safener is applied together with the test substance as a tank mix (the amount of safener is stated in g/ha or as a ratio, based on the herbicide).
By comparing the effect of test substances on crop plants without or with safener treatment, it is possible to assess the effect of the safener substance.

[2] = tested on: greenhouse red spider mite (Tetranychus urticae); test: Tetranychus test (OP-resistance/spray treatment) (Example E); settings: 100 g/ha; sprayed bean leaf discs
Experimental: Tetranychus Test (OP-resistance/Spray Treatment)
• Solvents: 78 parts by weight of acetone • 1.5 parts by weight of dimethylformamide • Emulsifier: 0.5 part by weight of alkylaryl polyglycol ether
To prepare a suitable preparation of active compound, 1 part by weight of active compound is mixed with the stated amounts of solvents and emulsifier, and the concentrate is diluted with emulsifier-containing water to the desired concentration.
Discs of bean leaves (Phaseolus vulgaris) which are infested by all stages of the greenhouse red spider mite (Tetranychus urticae) are sprayed with a preparation of active compound of the desired concentration.
After the desired period of time, the activity in % is determined. 100% means that all spider mites have been killed; 0% means that none of the spider mites have been killed.

[3] = tested on: monocotyledonous and dicotyledonous weed and crop plants; test: Herbicidal pre-emergence action (Example G); settings: greenhouse, 320 g of a.i./ha
Description: Herbicidal Pre-emergence Action
Seeds of monocotyledonous and dicotyledonous weed and crop plants are placed into sandy loam in wood fibre pots and covered with soil. The test compounds, formulated in the form of wettable powders (WP), are then, in various dosages as aqueous suspension with a water application rate of 600 l/ha (converted), with 0.2% of wetting agent added, applied to the surface of the covering soil. After the treatment, the pots are placed in a greenhouse and kept under good growth conditions for the test plants. The visual assessment of the emergence damage on the test plants is carried out after a trial period of 3 weeks by comparison with untreated controls (herbicidal effect in percent (%): 100% effect=the plants have died, 0% effect=like control plants).

[4] = tested on: monocotyledonous and dicotyledonous weed and crop plants; test: Herbicidal post-emergence action (Example H); settings: greenhouse, 320 g of a.i./ha
Experimental: as §1
Seeds of monocotyledonous and dicotyledonous weed and crop plants are placed into sandy loam in wood fibre pots, covered with soil and cultivated in a greenhouse under good growth conditions. 2-3 weeks after sowing, the test plants are treated at the one-leaf stage. The test compounds, formulated as wettable powders (WP), are, in various dosages with a water application rate of 600 l/ha (converted), with 0.2% of wetting agent added, sprayed onto the green parts of the plants. After the test plants were kept in a greenhouse under optimum growth conditions for about 3 weeks, the effect of the preparations is rated visually in comparison to untreated controls (herbicidal effect in percent (%): 100% effect=the plants have died, 0% effect=like control plants).

Row | Compound | Effect in % after 14d (Meloidogyne incognita) [%] | Summer barley observed (%) ([1]; 50 g of a.i./ha) | Summer wheat observed (%) ([1]; 50 g of a.i./ha) | Summer barley observed (%) ([1]; 100 g of a.i./ha) | Summer wheat observed (%) ([1]; 100 g of a.i./ha) | Kill rate in % after 5d [2] [%] | herbicidal effect, Echinochloea ([3]; Echinochloea) [%] | herbicidal effect, Setaria ([3]; Setaria) [%] | herbicidal effect, Sorghum ([3]; Sorghum) [%] | herbicidal effect, Soybeans ([3]; Soybeans) [%] | herbicidal effect, Wheat ([3]; Wheat) [%] | herbicidal effect, Alopecurus ([4]; Alopecurus) [%] | herbicidal effect, Digitaria ([4]; Digitaria) [%] | herbicidal effect, Lolium ([4]; Lolium) [%] | herbicidal effect, Setaria ([4]; Setaria) [%] | herbicidal effect, Sugarbeets ([4]; Sugarbeets) [%] | Summer barley observed (%) ([1]; 25 g of a.i./ha) | Summer wheat observed (%) ([1]; 25 g of a.i./ha)
1 | Cc1cc(-c2ccc(Cl)cc2)cc(C)c1C1(Cl)C(=O)N2CCCCN2C1=O [Ex. I-3-1] | 100 | 80 | 60 | 80 | 60 | – | – | – | – | – | – | – | – | – | – | – | – | –
2 | Cc1cc(-c2ccc(Cl)cc2)cc(C)c1C1(Cl)C(=O)N2CCOCCN2C1=O [Ex. I-4-1] | – | 95 | 97 | 97 | 97 | 90 | 70 | 80 | 70 | 0 | 0 | 80 | 100 | 80 | 100 | 10 | 40 | 60
